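Dose response: 5 concentrations. Exposure: 48 h. Format: 96-well plates. Endpoint: linear interpolation; highest concentration if not reached. GI50: concentration for 50% inhibition of growth.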 Activity calls are given as the source filed them. Rule as the data show it: active = GI50 up to about 1.1 µM and inactive = higher.
Assays:
Experiment in all cases: NCI-60 cell line screen, 48 h
[1] = test system: A549
[2] = test system: DLD-1
[3] = test system: SF-295
[4] = test system: U-251
[5] = test system: NCI-H522
[6] = test system: IGROV-1
[7] = test system: EKVX
[8] = test system: RPMI-8226
[9] = test system: OVCAR-3
[10] = test system: COLO 205
[11] = test system: OVCAR-4
[12] = test system: SK-MEL-2
[13] = test system: ACHN
[14] = test system: SK-MEL-28
[15] = test system: HCT-15
[16] = test system: SK-MEL-5
[17] = test system: HCC 2998
[18] = test system: Hs-578T
[19] = test system: MDA-N
[20] = test system: HL-60

Row | SMILES | GI50 [1] | GI50 [2] | GI50 [3] | GI50 [4] | GI50 [5] | GI50 [6] | GI50 [7] | GI50 [8] | GI50 [9] | GI50 [10] | GI50 [11] | GI50 [12] | GI50 [13] | GI50 [14] | GI50 [15] [µM] | GI50 [16] | GI50 [17] | GI50 [18] | GI50 [19] | GI50 [20]
1 | C[n+]1ccc(Nc2ccc(NC(=O)c3ccc(Nc4cc[n+](C)c5ccc([N+](=O)[O-])cc45)cc3[N+](=O)[O-])cc2)cc1 | 22 µM (inactive) | > 86.7 µM (inactive) | 27.8 µM (inactive) | 21.7 µM (inactive) | 13.8 µM (inactive) | > 100 µM (inactive) | 47.6 µM (inactive) | 13.3 µM (inactive) | 17.8 µM (inactive) | 22.5 µM (inactive) | 34.5 µM (inactive) | 50.1 µM (inactive) | > 100 µM (inactive) | 28.4 µM (inactive) | 61.2 | 23.3 µM (inactive) | – | – | – | –
2 | O=c1c2cccnc2ncn1CCCN1CCOCC1 | > 100 µM (inactive) | > 100 µM (inactive) | > 100 µM (inactive) | > 100 µM (inactive) | > 100 µM (inactive) | > 100 µM (inactive) | > 100 µM (inactive) | – | > 100 µM (inactive) | > 100 µM (inactive) | > 100 µM (inactive) | > 10 µM (inactive) | > 100 µM (inactive) | > 100 µM (inactive) | – | > 100 µM (inactive) | > 100 µM (inactive) | – | – | –
3 | CCCc1n[nH]c(CCC(=O)N(Cc2ccccc2)Cc2ccccc2)c1CC | > 100 µM (inactive) | > 100 µM (inactive) | > 100 µM (inactive) | – | > 100 µM (inactive) | > 100 µM (inactive) | > 100 µM (inactive) | > 100 µM (inactive) | > 100 µM (inactive) | > 100 µM (inactive) | > 100 µM (inactive) | > 100 µM (inactive) | > 100 µM (inactive) | > 100 µM (inactive) | > 100 | > 100 µM (inactive) | > 100 µM (inactive) | – | – | –
4 | COc1ccc(/C=C/c2cc(OC)c(OC(C)=O)c(OC)c2)cc1 | 24.8 µM (inactive) | 29.9 µM (inactive) | – | 17.5 µM (inactive) | 19.5 µM (inactive) | 36.8 µM (inactive) | 28.1 µM (inactive) | 31.8 µM (inactive) | 41.2 µM (inactive) | 68.1 µM (inactive) | 45.9 µM (inactive) | 37.2 µM (inactive) | 33 µM (inactive) | 9.68 µM (inactive) | 26.2 | – | 20.7 µM (inactive) | – | – | –
5 | COC(=O)c1cc(C#N)[nH]c1-c1ccc(Br)s1 | 8.55 µM (inactive) | – | 8.41 µM (inactive) | 10.4 µM (inactive) | 7.03 µM (inactive) | 7.21 µM (inactive) | 3.97 µM (inactive) | 5.08 µM (inactive) | 3.58 µM (inactive) | 14.1 µM (inactive) | 10.1 µM (inactive) | 6.55 µM (inactive) | 13.7 µM (inactive) | 11.9 µM (inactive) | 13.7 | 4.11 µM (inactive) | 17.9 µM (inactive) | 5.74 µM (inactive) | 13.7 µM (inactive) | 11.5 µM (inactive)
6 | CC(=O)NC(Cc1ccc(O)cc1)C(=O)O (stereo not given) | > 100 µM (inactive) | – | > 100 µM (inactive) | > 100 µM (inactive) | > 100 µM (inactive) | > 100 µM (inactive) | > 100 µM (inactive) | > 100 µM (inactive) | > 100 µM (inactive) | > 100 µM (inactive) | > 100 µM (inactive) | > 100 µM (inactive) | > 100 µM (inactive) | > 100 µM (inactive) | > 100 | > 100 µM (inactive) | > 100 µM (inactive) | > 100 µM (inactive) | > 100 µM (inactive) | > 100 µM (inactive)

From ChEMBL document CHEMBL1201862, “PubChem BioAssay data set” (2004)
